According to ChEMBL document CHEMBL2321802, “Identification of Potent and Selective Diphenylpropanamide RORγ Inhibitors” (ACS Med Chem Lett, 2013):
Calls of active or inactive are those of the source. The rule behind the calls is not given here.

How the values were obtained:
[1] = target: T1, Probable nuclear hormone receptor HR3 (Drosophila melanogaster) (UniProt P31396); assay: Antagonist activity at Drosophila melanogaster transactivation domain of DHR3 expressed in Drosophila Schneider cells co-expressing Gal4-DNA binding domain up to 96 uM; type: cell-based; details: Schneider 2
T1 sequence (whole entry): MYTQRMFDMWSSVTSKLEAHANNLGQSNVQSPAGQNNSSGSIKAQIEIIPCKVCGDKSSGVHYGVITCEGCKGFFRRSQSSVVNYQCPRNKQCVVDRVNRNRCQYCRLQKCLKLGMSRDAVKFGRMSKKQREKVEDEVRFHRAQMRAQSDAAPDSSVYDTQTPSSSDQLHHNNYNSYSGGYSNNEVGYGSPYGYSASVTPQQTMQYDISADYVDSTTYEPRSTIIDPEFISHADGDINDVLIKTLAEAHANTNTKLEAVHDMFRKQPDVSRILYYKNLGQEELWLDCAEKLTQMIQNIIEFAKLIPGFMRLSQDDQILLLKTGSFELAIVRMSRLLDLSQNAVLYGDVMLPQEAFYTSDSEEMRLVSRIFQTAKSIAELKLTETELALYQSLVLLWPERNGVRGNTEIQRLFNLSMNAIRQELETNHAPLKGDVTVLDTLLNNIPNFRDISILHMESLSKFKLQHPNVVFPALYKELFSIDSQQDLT

[2] = target: T2, Nuclear receptor ROR-alpha (Homo sapiens) (UniProt P35398); assay: Antagonist activity at transactivation domain of RORalpha (unknown origin) expressed in Drosophila Schneider cells co-expressing Gal4-DNA binding domain up to 96 uM; type: cell-based; details: Schneider 2
T2 sequence (whole entry): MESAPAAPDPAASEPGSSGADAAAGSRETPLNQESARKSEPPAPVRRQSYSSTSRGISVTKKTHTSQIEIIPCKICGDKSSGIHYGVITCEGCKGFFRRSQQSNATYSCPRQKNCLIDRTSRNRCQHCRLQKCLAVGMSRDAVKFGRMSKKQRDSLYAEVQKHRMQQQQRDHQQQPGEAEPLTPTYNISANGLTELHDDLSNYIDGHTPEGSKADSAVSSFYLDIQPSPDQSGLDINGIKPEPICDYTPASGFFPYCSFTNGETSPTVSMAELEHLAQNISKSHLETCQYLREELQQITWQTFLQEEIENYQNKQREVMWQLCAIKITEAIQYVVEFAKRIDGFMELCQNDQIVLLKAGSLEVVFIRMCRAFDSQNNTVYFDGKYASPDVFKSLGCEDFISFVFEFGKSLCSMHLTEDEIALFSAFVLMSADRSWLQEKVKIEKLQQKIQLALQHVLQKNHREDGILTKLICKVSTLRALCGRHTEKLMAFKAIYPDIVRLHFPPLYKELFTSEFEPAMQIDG

Schneider 2 = assay: Antagonist activity at HSV transactivation domain of VP16 expressed in Drosophila Schneider cells co-expressing Gal4-DNA binding domain up to 96 uM; type: cell-based; details: Human alphaherpesvirus 1
[3] = Cytotoxicity against human Th17 cells up to 96 uM; type: cell-based
[4] = target: T3, Nuclear receptor ROR-gamma (Homo sapiens, UniProt P51449); assay: Antagonist activity at transactivation domain of RORgammat (unknown origin) expressed in Drosophila Schneider cells co-expressing Gal4-DNA binding domain; type: cell-based, Schneider 2
T3 sequence (P51449 whole entry): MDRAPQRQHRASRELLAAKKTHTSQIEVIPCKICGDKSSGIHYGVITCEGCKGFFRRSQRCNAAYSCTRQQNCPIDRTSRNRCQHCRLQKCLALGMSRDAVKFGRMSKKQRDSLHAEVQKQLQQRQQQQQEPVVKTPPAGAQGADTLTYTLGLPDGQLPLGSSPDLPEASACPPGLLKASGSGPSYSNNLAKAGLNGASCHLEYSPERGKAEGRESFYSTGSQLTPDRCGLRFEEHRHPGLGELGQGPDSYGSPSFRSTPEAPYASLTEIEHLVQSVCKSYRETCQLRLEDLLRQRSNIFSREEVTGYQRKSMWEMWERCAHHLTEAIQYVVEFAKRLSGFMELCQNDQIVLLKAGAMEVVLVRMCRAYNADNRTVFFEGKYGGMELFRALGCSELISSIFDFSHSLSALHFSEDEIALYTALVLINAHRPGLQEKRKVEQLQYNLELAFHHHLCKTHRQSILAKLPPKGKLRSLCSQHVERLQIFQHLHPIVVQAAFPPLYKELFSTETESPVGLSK

| SMILES | inhibition [1] | inhibition [2] | IC50 ([4]; read-out: IC50) [µM] | IC50 ([4]; schneider 2) | inhibition (Schneider 2) | Activity [3] |
| --- | --- | --- | --- | --- | --- | --- |
| COc1cc(O)c(C(CC(=O)N2CCCCC2C)c2ccc3c(c2)OCO3)c(OC)c1 (mixture of isomers) | inactive | inactive | – | – | inactive | Non-toxic |
| COc1cc(O)c(C(CC(=O)N2CCCCC2)c2ccc3c(c2)OCO3)c(OC)c1 (stereo unspecified) | inactive | inactive | 15.7 | – | inactive | Non-toxic |
| COc1cc(O)c(C(CC(=O)N2CCCC(C)C2)c2ccc3c(c2)OCO3)c(OC)c1 (mixture of isomers) | inactive | inactive | 3.3 | – | inactive | Non-toxic |
| COc1cc(OC)c(C(CC(=O)N2CCCC(C)C2)c2ccc3c(c2)OCO3)c(OC)c1 (mixture of isomers) | inactive | inactive | – | – | inactive | Non-toxic |
| COc1cccc(C(CC(=O)N2C[C@H](C)C[C@H](C)C2)c2c(O)cc(OC)cc2OC)c1 (stereo partly specified) | inactive | inactive | – | – | inactive | Non-toxic |
| COc1ccc(C(CC(=O)N2CCCC(C)C2)c2c(O)cc(OC)cc2OC)cc1 (mixture of isomers) | inactive | inactive | 2.5 | – | inactive | Non-toxic |
| C[C@H]1O[C@@H](O[C@H]2[C@@H](O)C[C@H](O[C@H]3[C@@H](O)C[C@H](O[C@H]4CC[C@@]5(C)[C@H](CC[C@@H]6[C@@H]5C[C@@H](O)[C@]5(C)[C@@H](C7=CC(=O)OC7)CC[C@]65O)C4)O[C@@H]3C)O[C@@H]2C)C[C@H](O)[C@@H]1O [DIGOXIN] | – | – | 2 | – | – | – |
| COc1cc(O)c(C(CC(=O)N2C[C@H](C)C[C@H](C)C2)c2ccc(C)cc2)c(OC)c1 (stereo partly specified) | inactive | inactive | – | – | inactive | Non-toxic |
| COc1cc(O)c(C(CC(=O)N2CCCC(C)(C)C2)c2ccc3c(c2)OCO3)c(OC)c1 (stereo unspecified) | inactive | inactive | – | – | inactive | Non-toxic |
| CC1CCCN(C(=O)CC(c2ccc3c(c2)OCO3)c2cc(-c3ccccc3)ccc2O)C1 (mixture of isomers) | inactive | inactive | – | – | inactive | Non-toxic |
| COc1cc(O)c(C(CC(=O)Nc2ccc(C)cc2)c2ccc3c(c2)OCO3)c(OC)c1 (stereo unspecified) | inactive | inactive | > 50 | – | inactive | Non-toxic |
| COc1ccc(C(CC(=O)N2C[C@H](C)C[C@H](C)C2)c2c(O)cc(OC)cc2OC)cc1 (stereo partly specified) | inactive | inactive | – | – | inactive | Non-toxic |
| COc1cc(O)c(C(CC(=O)N2C[C@H](C)C[C@H](C)C2)c2ccc(Cl)cc2)c(OC)c1 (stereo partly specified) | inactive | inactive | – | – | inactive | Non-toxic |
| COc1cc(O)c(C(CC(=O)N2CCC(C)CC2)c2ccc3c(c2)OCO3)c(OC)c1 (stereo unspecified) | inactive | inactive | – | – | inactive | Non-toxic |
| COc1cc(O)c(C(CC(=O)N2C[C@H](C)C[C@H](C)C2)c2ccc(C(F)(F)F)cc2)c(OC)c1 (stereo partly specified) | inactive | inactive | – | – | inactive | Non-toxic |

Continued, in another order:

| inhibition [1] | inhibition [2] | IC50 ([4]; read-out: IC50) [µM] | IC50 ([4]; schneider 2) | SMILES | inhibition (Schneider 2) | Activity [3] |
| --- | --- | --- | --- | --- | --- | --- |
| inactive | inactive | – | – | CCCCNC(=O)CC(c1ccc2c(c1)OCO2)c1c(O)cc(OC)cc1OC (stereo unspecified) | inactive | Non-toxic |
| inactive | inactive | – | – | COc1cc(O)c(C(CC(=O)N2CCCCCC2)c2ccc3c(c2)OCO3)c(OC)c1 (stereo unspecified) | inactive | Non-toxic |
| inactive | inactive | – | – | COc1cccc(O)c1C(CC(=O)N1CCCC(C)C1)c1ccc2c(c1)OCO2 (mixture of isomers) | inactive | Non-toxic |
| inactive | inactive | – | Not Active | COc1cc(O)c(C(CC(=O)N2CCOCC2)c2ccc3c(c2)OCO3)c(OC)c1 (stereo unspecified) | inactive | Non-toxic |
| inactive | inactive | – | Not Active | COc1cc(O)c(C(CC(=O)N2C[C@@H](C)N[C@@H](C)C2)c2ccc3c(c2)OCO3)c(OC)c1 (stereo partly specified) | inactive | Non-toxic |
| inactive | inactive | > 50 | – | CCN(CC)C(=O)CC(c1ccc2c(c1)OCO2)c1c(O)cc(OC)cc1OC (stereo unspecified) | inactive | Non-toxic |
| inactive | inactive | > 50 | – | COc1cc(O)c(C(CC(=O)N2CCCC2)c2ccc3c(c2)OCO3)c(OC)c1 (stereo unspecified) | inactive | Non-toxic |
| inactive | inactive | – | – | COc1cc(O)c(C(CC(=O)N2C[C@@H](C)O[C@@H](C)C2)c2ccc3c(c2)OCO3)c(OC)c1 (stereo partly specified) | inactive | Non-toxic |
| inactive | inactive | – | – | COc1ccc(C(CC(=O)N2CCCC(C)C2)c2ccc3c(c2)OCO3)c(O)c1 (mixture of isomers) | inactive | Non-toxic |
